Key:
[1] = test system: L1210; assay: Ratio of the cytotoxicity against cisplatin resistance L1210 to parent (sensitive) cell lines; format: functional, cell-based
[2] = test system: PC-14; assay: Cytotoxicity against human non-small cell lung cancer cell line PC-14 in MTT assay; format: functional, cell-based
[3] = test system: L1210; assay: In vitro cytotoxicity against cisplatin sensitive L1210 murine leukemia cell line; format: functional, cell-based, Mus musculus
[4] = test system: SNU1; assay: Cytotoxicity against human stomach cancer cell line SNU-1 in MTT assay; format: functional, cell-based
[5] = test system: SNU-5; assay: Cytotoxicity against human stomach cancer cell line SNU-5 in MTT assay; format: functional, cell-based
[6] = test system: L1210; assay: In vitro cytotoxicity against cisplatin resistance L1210 murine leukemia cell line; format: functional, cell-based, Mus musculus
[7] = test system: SNU-16; assay: Cytotoxicity against human stomach cancer cell line SNU-16 in MTT assay; format: functional, cell-based
[8] = test system: PC-9; assay: Cytotoxicity against human non-small cell lung cancer cell line PC-9 in MTT assay; format: functional, cell-based

| Sequence | Ratio [1] | IC50 [2] [µM] | IC50 [3] [µM] | IC50 [4] [µM] | IC50 [5] [µM] | IC50 [6] [µM] | IC50 [7] [µM] | IC50 [8] [µM] |
| --- | --- | --- | --- | --- | --- | --- | --- | --- |
| CISPLATIN [listing 1 of 2 here] | 3.24 | – | – | – | – | – | – | – |
| CARBOPLATIN [listing 1 of 2 here] | 24.1 | – | – | – | – | – | – | – |
| CISPLATIN [listing 2 of 2 here] | – | 1.33 | 0.1 | 2.67 | 1 | 3.27 | 5 | 1 |
| CARBOPLATIN [listing 2 of 2 here] | – | 15.6 | 1.83 | 20.1 | 9.16 | 44.2 | 13.7 | 21.8 |
